Assays:
Settings in all cases: 48 h
[1] = tested on: NOMO1; assay: cell viability relative to DMSO control; higher = less cytotoxic
Procedure, shortened: (§1)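 Viability values are per-plate percentages of DMSO wells, with background from cell-free wells. Library compounds in DMSO were pin-dosed, in an 11-point threefold series from 47 μM to 0.79 nM, onto NOMO1 or SEM (500 cells/well) or P12-Ichikawa (1000 cells/well) leukemia cells in 1536-well plates (5 μl). Those cells had been adapted for at least four passages in each medium, and CellTiter-Glo One luminescence was read after 48 h at 37°C.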

[2] = tested on: P12-Ichikawa; assay: as above
Procedure, shortened: as §1

[3] = tested on: SEM cells; assay: as above
Procedure, shortened: as §1

[4] = tested on: NOMO1; assay: AUC of viability dose-response curve (% viability x log10 dose units); higher = less sensitive
Procedure, shortened: (§2)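 Library compounds in DMSO were applied for 48 h at 37°C at 11 threefold doses (47 μM to 0.79 nM) to medium-adapted leukemia cells in 1536-well plates holding 500 or 1000 cells/well. Luminescence from CellTiter-Glo One was normalised plate by plate against DMSO and cell-free wells. Area under the curve came from trapezoidal integration of a log-logistic fit, after scaling curves that rose above full viability and discarding those that failed quality control. The fit had four parameters and used log10 doses.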

[5] = tested on: P12-Ichikawa; assay: as above
Procedure, shortened: as §2

[6] = tested on: SEM cells; assay: as above
Procedure, shortened: as §2

C[N]1C=C(C=N1)C2=CC=C3N=CC\4=C(N(C(=O)\C=C4)C5=CC6=C(CCN6C(=O)C=C)C=C5)C3=C2
cell viability [%]
Settings	[1]	[2]	[3]
HPLM + 10% dialyzed FBS, 0.000781 µM	–	106	118
HPLM + 10% dialyzed FBS, 0.00234 µM	–	121	114
HPLM + 10% dialyzed FBS, 0.00702 µM	–	109	96.1
HPLM + 10% dialyzed FBS, 0.0211 µM	–	114	120
HPLM + 10% dialyzed FBS, 0.0632 µM	–	112	93.9
HPLM + 10% dialyzed FBS, 0.19 µM	–	115	110
HPLM + 10% dialyzed FBS, 0.569 µM	–	105	102
HPLM + 10% dialyzed FBS, 1.71 µM	–	95.4	82.1
HPLM + 10% dialyzed FBS, 5.12 µM	–	79.9	27.6
HPLM + 10% dialyzed FBS, 15.4 µM	–	20.8	4.07
HPLM + 10% dialyzed FBS, 46.1 µM	–	20.4	4.13
RPMI 5 mM glucose + 10% FBS, 0.000781 µM	100	123	104
RPMI 5 mM glucose + 10% FBS, 0.00234 µM	104	112	105
RPMI 5 mM glucose + 10% FBS, 0.00702 µM	108	118	90.4
RPMI 5 mM glucose + 10% FBS, 0.0211 µM	95.2	114	110
RPMI 5 mM glucose + 10% FBS, 0.0632 µM	102	110	117
RPMI 5 mM glucose + 10% FBS, 0.19 µM	109	113	111
RPMI 5 mM glucose + 10% FBS, 0.569 µM	95.7	111	118
RPMI 5 mM glucose + 10% FBS, 1.71 µM	88.8	98	80.5
RPMI 5 mM glucose + 10% FBS, 5.12 µM	69.3	74.6	26.6
RPMI 5 mM glucose + 10% FBS, 15.4 µM	13.5	7.13	2.7
RPMI 5 mM glucose + 10% FBS, 46.1 µM	9.25	5.07	3.13
RPMI 5 mM glucose + 10% dialyzed FBS, 0.000781 µM	105	116	–
RPMI 5 mM glucose + 10% dialyzed FBS, 0.00234 µM	108	128	–
RPMI 5 mM glucose + 10% dialyzed FBS, 0.00702 µM	109	117	–
RPMI 5 mM glucose + 10% dialyzed FBS, 0.0211 µM	119	120	–
RPMI 5 mM glucose + 10% dialyzed FBS, 0.0632 µM	97.2	115	–
RPMI 5 mM glucose + 10% dialyzed FBS, 0.19 µM	107	126	–
RPMI 5 mM glucose + 10% dialyzed FBS, 0.569 µM	96	119	–
RPMI 5 mM glucose + 10% dialyzed FBS, 1.71 µM	90.6	98.4	–
RPMI 5 mM glucose + 10% dialyzed FBS, 5.12 µM	47.4	82.2	–
RPMI 5 mM glucose + 10% dialyzed FBS, 15.4 µM	6.23	6.85	–
RPMI 5 mM glucose + 10% dialyzed FBS, 46.1 µM	5.9	4.97	–

AUC of viability dose-response curve
Settings	[4]	[5]	[6]
HPLM + 10% dialyzed FBS	359	404	359
RPMI 5 mM glucose + 10% FBS	396	391	360
RPMI 5 mM glucose + 10% dialyzed FBS	375	393	353

Cc1ncc(-c2ccnc(Nc3ccc([S+](C)(=O)[O-])cc3)n2)n1C(C)C
AUC of viability dose-response curve
Settings	[4]	[5]	[6]
HPLM + 10% dialyzed FBS	400	437	367
RPMI 5 mM glucose + 10% FBS	396	412	357
RPMI 5 mM glucose + 10% dialyzed FBS	389	416	380

COc1ccc(-c2ccc3cc(C(=O)O)ccc3c2)cc1C12CC3CC(CC(C3)C1)C2
AUC of viability dose-response curve
Settings	[4]	[5]	[6]
HPLM + 10% dialyzed FBS	436	465	459
RPMI 5 mM glucose + 10% FBS	441	447	468
RPMI 5 mM glucose + 10% dialyzed FBS	387	458	459

CC[C@H]1OC(=O)[C@H](C)[C@@H](O[C@H]2C[C@@](C)(OC)[C@@H](O)[C@H](C)O2)[C@H](C)[C@@H](O[C@@H]2O[C@H](C)C[C@H](N(C)C)[C@H]2O)[C@](C)(O)C[C@@H](C)CN(C)[C@H](C)[C@@H](O)[C@]1(C)O
[3], HPLM + 10% dialyzed FBS
Settings	cell viability [%]
0.000781 µM	85.1
0.00234 µM	122
0.00702 µM	124
0.0211 µM	129
0.0632 µM	133
0.19 µM	127
0.569 µM	149
1.71 µM	119
5.12 µM	129
15.4 µM	133
46.1 µM	96.6

AUC of viability dose-response curve
Settings	[4]	[5]	[6]
HPLM + 10% dialyzed FBS	458	458	458
RPMI 5 mM glucose + 10% FBS	419	452	458
RPMI 5 mM glucose + 10% dialyzed FBS	446	459	467

COC1=CC=C2[N](CCCN(C)C)C=C(C2=C1)C/3=C(/C(=O)NC3=O)C4=C[NH]C5=C4C=CC=C5
[3], HPLM + 10% dialyzed FBS
Settings	cell viability [%]
0.000781 µM	107
0.00234 µM	123
0.00702 µM	123
0.0211 µM	123
0.0632 µM	122
0.19 µM	57.2
0.569 µM	132
1.71 µM	111
5.12 µM	88.4
15.4 µM	67.4
46.1 µM	8.06

AUC of viability dose-response curve
Settings	[4]	[5]	[6]
HPLM + 10% dialyzed FBS	471	456	425
RPMI 5 mM glucose + 10% FBS	471	453	365
RPMI 5 mM glucose + 10% dialyzed FBS	472	452	387

CCc1cc(-c2n[nH]c(C)c2-c2ccc3c(c2)OCCO3)c(O)cc1O
cell viability [%]
Settings	[2]	[3]
HPLM + 10% dialyzed FBS, 0.000781 µM	115	98
HPLM + 10% dialyzed FBS, 0.00234 µM	133	123
HPLM + 10% dialyzed FBS, 0.00702 µM	119	137
HPLM + 10% dialyzed FBS, 0.0211 µM	132	117
HPLM + 10% dialyzed FBS, 0.0632 µM	132	128
HPLM + 10% dialyzed FBS, 0.19 µM	135	124
HPLM + 10% dialyzed FBS, 0.569 µM	131	126
HPLM + 10% dialyzed FBS, 1.71 µM	135	111
HPLM + 10% dialyzed FBS, 5.12 µM	131	111
HPLM + 10% dialyzed FBS, 15.4 µM	96.7	32.9
HPLM + 10% dialyzed FBS, 46.1 µM	74.7	36.2
RPMI 5 mM glucose + 10% FBS, 0.000781 µM	–	106
RPMI 5 mM glucose + 10% FBS, 0.00234 µM	–	123
RPMI 5 mM glucose + 10% FBS, 0.00702 µM	–	115
RPMI 5 mM glucose + 10% FBS, 0.0211 µM	–	127
RPMI 5 mM glucose + 10% FBS, 0.0632 µM	–	134
RPMI 5 mM glucose + 10% FBS, 0.19 µM	–	140
RPMI 5 mM glucose + 10% FBS, 0.569 µM	–	120
RPMI 5 mM glucose + 10% FBS, 1.71 µM	–	115
RPMI 5 mM glucose + 10% FBS, 5.12 µM	–	102
RPMI 5 mM glucose + 10% FBS, 15.4 µM	–	31.4
RPMI 5 mM glucose + 10% FBS, 46.1 µM	–	25.2

AUC of viability dose-response curve
Settings	[4]	[5]	[6]
HPLM + 10% dialyzed FBS	450	455	422
RPMI 5 mM glucose + 10% FBS	447	435	414
RPMI 5 mM glucose + 10% dialyzed FBS	448	444	418
